Assay results from patent publication US20230295152A1 (SENDA BIOSCIENCES, INC., priority 2019, published 2023).

target: T1, AHR (Homo sapiens, UniProt P35869); assay: DRE-Luciferase Reporter Assay, HepG2 AhR-Lucia reporter cells; assay type: cell-based; conditions: with AHR activating ligand at EC50, read-out: HepG2-Luc IC50
T1 construct: other cell line with a DRE-luciferase reporter stably transfected; endogenous in cells; host or cells: HepG2 AhR-Lucia reporter cells
T1 sequence (P35869 11-848): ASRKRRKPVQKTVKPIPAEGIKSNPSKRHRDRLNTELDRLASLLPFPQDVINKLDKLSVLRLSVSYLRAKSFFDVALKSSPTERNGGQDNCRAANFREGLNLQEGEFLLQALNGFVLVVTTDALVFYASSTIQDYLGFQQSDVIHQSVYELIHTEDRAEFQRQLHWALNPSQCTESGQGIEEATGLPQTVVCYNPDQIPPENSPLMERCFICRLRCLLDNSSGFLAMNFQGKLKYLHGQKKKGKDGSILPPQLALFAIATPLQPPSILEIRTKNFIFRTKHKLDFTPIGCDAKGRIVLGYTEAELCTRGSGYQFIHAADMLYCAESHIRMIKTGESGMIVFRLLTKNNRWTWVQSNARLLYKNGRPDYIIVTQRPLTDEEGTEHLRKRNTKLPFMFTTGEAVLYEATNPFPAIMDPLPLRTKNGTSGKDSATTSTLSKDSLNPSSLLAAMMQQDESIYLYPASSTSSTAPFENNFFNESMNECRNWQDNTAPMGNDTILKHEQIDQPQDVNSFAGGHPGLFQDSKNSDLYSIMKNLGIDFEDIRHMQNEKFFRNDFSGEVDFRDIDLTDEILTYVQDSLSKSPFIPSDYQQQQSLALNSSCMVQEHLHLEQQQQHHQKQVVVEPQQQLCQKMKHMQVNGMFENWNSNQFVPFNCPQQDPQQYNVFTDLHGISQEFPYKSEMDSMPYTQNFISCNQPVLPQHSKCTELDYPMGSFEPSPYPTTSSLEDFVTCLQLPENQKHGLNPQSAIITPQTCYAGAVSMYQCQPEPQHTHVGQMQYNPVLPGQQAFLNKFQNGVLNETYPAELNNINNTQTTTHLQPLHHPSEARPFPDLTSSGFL
In short: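 DRE-luciferase reporter cells (e.g. HepG2 AhR-Lucia, 20000 cells) treated with antagonist log dilutions from 100 uM, then an AHR agonist (e.g. TCDD, kynurenine, ITE, FICZ) at its EC50 added after 1 hr. Secreted luciferase measured after 24 or 48 h (QUANTI-Luc); IC50 = concentration halving luciferase activity.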

SMILES | IC50
O=c1c2cc(-c3ccc(C(F)(F)F)cn3)nc(-c3cccnc3)c2ncn1C[C@H](O)C(F)(F)F [Compound 104, (S)-8-(pyridin-3-yl)-3-(3,3,3-trifluoro-2-hydroxypropyl)-6-(5-(trifluoromethyl)pyridin-2-yl)pyrido[3,4-d]pyrimidin-4(3H)-one] | < 100 nM
O=c1c2cc(-c3ccc(OC(F)(F)F)cc3)nc(-c3cccnc3)c2ncn1C[C@H](O)C(F)(F)F [Compound 124, (S)-8-(pyridin-3-yl)-3-(3,3,3-trifluoro-2-hydroxypropyl)-6-(4-(trifluoromethoxy)phenyl)pyrido[3,4-d]pyrimidin-4(3H)-one] | < 100 nM
Cc1ncc(-c2cc3c(=O)n([C@@H](C)CO)cnc3c(-c3cccnc3)n2)s1 [Compound 89] | < 100 nM
O=c1c2cc(-c3ccc(C(F)(F)F)cn3)nc(-c3cccnc3)c2ncn1[C@H]1COC[C@@H]1O [Compound 139, 3-((3S,4R)-4-hydroxytetrahydrofuran-3-yl)-8-(pyridin-3-yl)-6-(5-(trifluoromethyl)pyridin-2-yl)pyrido[3,4-d]pyrimidin-4(3H)-one] | < 100 nM
CC(C)(O)Cn1cnc2c(-c3cccnc3)nc(-c3ccc(C4CC4)nc3)cc2c1=O [Compound 81] | < 100 nM
C[C@@H](CO)n1cnc2c(-c3cccnc3)nc(-c3cnc(C(F)(F)F)nc3)cc2c1=O [Compound 86] | < 100 nM
C[C@@H](CO)n1cnc2c(-c3cccnc3)nc(-c3ccc(C(F)(F)F)cc3)cc2c1=O [Compound 23] | < 100 nM
Cn1cc(-c2nc(-c3ccc(Cl)cc3)cc3c(=O)n([C@H]4COC[C@@H]4O)cnc23)cn1 [Compound 116] | < 100 nM
C[C@@H](CO)n1cnc2c(-c3cccnc3)nc(-c3ccc(OC(F)(F)F)nc3)cc2c1=O [Compound 50] | < 100 nM
C[C@@H](CO)n1cnc2c(N3CCCCC3)nc(-c3ccc(Cl)cc3)cc2c1=O [Compound 177, (S)-6-(4-chlorophenyl)-3-(1-hydroxypropan-2-yl)-8-(piperidin-1-yl)pyrido[3,4-d]pyrimidin-4(3H)-one] | < 100 nM
C[C@@H](CO)n1cnc2c(-c3cccnc3)nc(-c3cnc(C(F)(F)F)s3)cc2c1=O [Compound 85] | < 100 nM
C[C@@H](CO)n1cnc2c(-c3cnsc3)nc(-c3ccc(Cl)cc3)cc2c1=O [Compound 58] | < 100 nM
C[C@@H](CO)n1cnc2c(-n3ccnc3)nc(-c3ccc(C(F)(F)F)cn3)cc2c1=O [Compound 162, (S)-3-(1-hydroxypropan-2-yl)-8-(1H-imidazol-1-yl)-6-(5-(trifluoromethyl)pyridin-2-yl)pyrido[3,4-d]pyrimidin-4(3H)-one] | < 100 nM
C[C@@H](CO)n1cnc2c(-c3cccnc3)nc(-c3cnc(C4CC4)s3)cc2c1=O [Compound 66] | < 100 nM

Now from value to molecule:

IC50 | SMILES
< 100 nM | O=c1c2cc(-c3ccc(C(F)(F)F)nc3)nc(-c3cccnc3)c2ncn1[C@H]1COC[C@H]1O [Compound 126, 3-((3S,4S)-4-hydroxytetrahydrofuran-3-yl)-8-(pyridin-3-yl)-6-(6-(trifluoromethyl)pyridin-3-yl)pyrido[3,4-d]pyrimidin-4(3H)-one]
< 100 nM | C[C@@H](CO)n1cnc2c(-c3cnn(C)c3)nc(-c3ccc(C4CC4)nc3)cc2c1=O [Compound 83]
< 100 nM | Cn1cc(-c2nc(-c3cnc(C(F)(F)F)nc3)cc3c(=O)n(CC(C)(C)O)cnc23)cn1 [Compound 99]
< 100 nM | Cn1cc(-c2nc(-c3ccc(C(F)(F)F)nc3)cc3c(=O)n(C[C@@H](O)C(F)(F)F)cnc23)cn1 [Compound 110, (R)-8-(1-methyl-1H-pyrazol-4-yl)-3-(3,3,3-trifluoro-2-hydroxypropyl)-6-(6-(trifluoromethyl)pyridin-3-yl)pyrido[3,4-d]pyrimidin-4(3H)-one]
< 100 nM | C[C@H](O)Cn1cnc2c(-c3cccnc3)nc(-c3ccc(C(F)(F)F)cn3)cc2c1=O [Compound 143, (S)-3-(2-hydroxypropyl)-8-(pyridin-3-yl)-6-(5-(trifluoromethyl)pyridin-2-yl)pyrido[3,4-d]pyrimidin-4(3H)-one]
< 100 nM | Cn1cc(-c2nc(-c3ccc(C(F)(F)F)nc3)cc3c(=O)n([C@@H]4COC[C@H]4O)cnc23)cn1 [Compound 115, 3-((3R,4S)-4-hydroxytetrahydrofuran-3-y1)-8-(1-methyl-1H-pyrazol-4-y1)-6-(6-(trifluoromethyl)pyridin-3-yl)pyrido[3,4-d]pyrimidin-4(3H)-one]
< 100 nM | CNC(=O)[C@H](C)n1cnc2c(-c3cccnc3)nc(-c3ccc(C(F)(F)F)nc3)cc2c1=O [Compound 156, (S)—N-methyl-2-(4-oxo-8-(pyridin-3-yl)-6-(6-(trifluoromethyl)pyridin-3-yl)pyrido[3,4-d]pyrimidin-3(4H)-yl)propanamide]
< 100 nM | C[C@H](O)Cn1cnc2c(-c3cnn(C)c3)nc(-c3ccc(C(F)(F)F)nc3)cc2c1=O [Compound 109, (S)-3-(2-hydroxypropyl)-8-(1-methyl-1H-pyrazol-4-yl)-6-(6-(trifluoromethyl)pyridin-3-yl)pyrido[3,4-d]pyrimidin-4(3H)-one]
< 100 nM | C[C@@H](O)Cn1cnc2c(-c3cccnc3)nc(-c3ccc(C(F)(F)F)nc3)cc2c1=O [Compound 112, (R)-3-(2-hydroxypropyl)-8-(pyridin-3-yl)-6-(6-(trifluoromethyl)pyridin-3-yl)pyrido[3,4-d]pyrimidin-4(3H)-one]
< 100 nM | CC(C)(O)Cn1cnc2c(-c3cnsc3)nc(-c3ccc(C(F)(F)F)cn3)cc2c1=O [Compound 101, 3-(2-hydroxy-2-methylpropyl)-8-(isothiazol-4-yl)-6-(5-(trifluoromethyl)pyridin-2-yl)pyrido[3,4-d]pyrimidin-4(3H)-one]
< 100 nM | Cn1cc(-c2nc(-c3ccc(C4CC4)nc3)cc3c(=O)n(CC(C)(C)O)cnc23)cn1 [Compound 82]
< 100 nM | O=c1c2cc(-c3ccc(C4CC4)nc3)nc(-c3cccnc3)c2ncn1C[C@H](O)C(F)(F)F [Compound 120, (S)-6-(6-cyclopropylpyridin-3-yl)-8-(pyridin-3-yl)-3-(3,3,3-trifluoro-2-hydroxypropyl)pyrido[3,4-d]pyrimidin-4(3H)-one]
< 100 nM | Cn1cc(-c2nc(-c3ccc(C(F)(F)F)nc3)cc3c(=O)n(C[C@H](O)C(F)(F)F)cnc23)cn1 [Compound 111, (S)-8-(1-methyl-1H-pyrazol-4-yl)-3-(3,3,3-trifluoro-2-hydroxypropyl)-6-(6-(trifluoromethyl)pyridin-3-y1)pyrido[3,4-d]pyrimidin-4(3H)-one]
< 100 nM | C[C@H](O)Cn1cnc2c(-c3cnn(C)c3)nc(-c3ccc(C(F)(F)F)cn3)cc2c1=O [Compound 142, (S)-3-(2-hydroxypropyl)-8-(1-methyl-1H-pyrazol-4-yl)-6-(5-(trifluoromethyl)pyridin-2-yl)pyrido[3,4-d]pyrimidin-4(3H)-one]
< 100 nM | C[C@@H](CO)n1cnc2c(-c3cnn(C)c3)nc(-c3cnc(C(F)(F)F)nc3)cc2c1=O [Compound 95]
< 100 nM | Cn1cc(-c2nc(-c3ccc(C(F)(F)F)nc3)cc3c(=O)n([C@H]4COC[C@H]4O)cnc23)cn1 [Compound 88]
< 100 nM | O=c1c2cc(-c3ccc(C(F)(F)F)nc3)nc(-c3cccnc3)c2ncn1[C@H]1COC[C@@H]1O [Compound 117]
< 100 nM | Cn1cc(-c2nc(-c3ccc(C(F)(F)F)nc3)cc3c(=O)n([C@H]4COC[C@@H]4O)cnc23)cn1 [Compound 114, 3-((3S,4R)-4-hydroxytetrahydrofuran-3-yl)-8-(1-methyl-1H-pyrazol-4-yl)-6-(6-(trifluoromethyl)pyridin-3-yl)pyrido[3,4-d]pyrimidin-4(3H)-one]
< 100 nM | CC(C)(O)Cn1cnc2c(-c3cn[nH]c3)nc(-c3ccc(C(F)(F)F)nc3)cc2c1=O [Compound 51]
< 100 nM | Cn1cc(-c2nc(-c3ccc(C(F)(F)F)cn3)cc3c(=O)n([C@H]4COC[C@H]4O)cnc23)cn1 [Compound 151, 3-((3S,4S)-4-hydroxytetrahydrofuran-3-yl)-8-(1-methyl-1H-pyrazol-4-yl)-6-(5-(trifluoromethyl)pyridin-2-yl)pyrido[3,4-d]pyrimidin-4(3H)-one]
< 100 nM | Cn1cc(-c2nc(-c3ccc(C4CC4)nc3)cc3c(=O)n(C[C@H](O)C(F)(F)F)cnc23)cn1 [Compound 136, (S)-6-(6-cyclopropylpyridin-3-yl)-8-(1-methyl-1H-pyrazol-4-yl)-3-(3,3,3-trifluoro-2-hydroxypropyl)pyrido[3,4-d]pyrimidin-4(3H)-one]
< 100 nM | O=c1c2cc(-c3ccc(C(F)(F)F)nc3)nc(-c3cccnc3)c2ncn1C[C@H](O)C(F)(F)F [Compound 57]
